According to ChEMBL document CHEMBL1909046, “DrugMatrix in vitro pharmacology data”:

Experiments:
Cytochrome P450 1A2 = target: T1, Cytochrome P450 1A2 (Homo sapiens, UniProt P05177); settings: bti-tn-5b1-4; further: in other assays of this panel Not Active means under 50% inhibition at 10 µM
T1 sequence (P05177 whole entry): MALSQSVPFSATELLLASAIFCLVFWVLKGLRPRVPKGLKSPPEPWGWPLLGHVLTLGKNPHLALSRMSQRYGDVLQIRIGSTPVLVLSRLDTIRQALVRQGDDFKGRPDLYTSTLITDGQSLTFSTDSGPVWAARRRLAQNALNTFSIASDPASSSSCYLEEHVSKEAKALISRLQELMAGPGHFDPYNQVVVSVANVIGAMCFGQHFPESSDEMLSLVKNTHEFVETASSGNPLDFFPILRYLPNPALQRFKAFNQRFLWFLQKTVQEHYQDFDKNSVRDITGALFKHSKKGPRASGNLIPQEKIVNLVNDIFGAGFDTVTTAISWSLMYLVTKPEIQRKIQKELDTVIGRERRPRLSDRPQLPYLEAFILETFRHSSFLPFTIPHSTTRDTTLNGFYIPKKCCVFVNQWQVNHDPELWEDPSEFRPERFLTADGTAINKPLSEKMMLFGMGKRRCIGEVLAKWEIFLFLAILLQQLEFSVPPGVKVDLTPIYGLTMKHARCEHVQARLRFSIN

[1] = target: T2, C-X-C chemokine receptor type 1 (Homo sapiens, UniProt P25024); further: in other assays of this panel Not Active means under 50% inhibition at 10 µM
T2 sequence (P25024 whole entry): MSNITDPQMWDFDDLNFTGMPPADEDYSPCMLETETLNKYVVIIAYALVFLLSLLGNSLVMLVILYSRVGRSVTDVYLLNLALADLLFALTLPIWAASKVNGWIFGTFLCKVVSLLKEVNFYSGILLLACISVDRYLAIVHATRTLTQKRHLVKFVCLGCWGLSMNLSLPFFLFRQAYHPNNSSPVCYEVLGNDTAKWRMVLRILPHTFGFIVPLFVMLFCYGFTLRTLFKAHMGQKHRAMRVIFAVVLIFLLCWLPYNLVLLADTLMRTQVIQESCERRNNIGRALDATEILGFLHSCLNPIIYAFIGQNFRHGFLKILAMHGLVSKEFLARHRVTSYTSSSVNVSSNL

Melanocortin receptor 4 = Melanocortin receptor 4 (Homo sapiens, UniProt P32245); assay type: cell membranes, Membrane; settings: hek293; further: in other assays of this panel Not Active means under 50% inhibition at 10 µM
Melanocortin receptor 4, sequence (P32245 whole entry): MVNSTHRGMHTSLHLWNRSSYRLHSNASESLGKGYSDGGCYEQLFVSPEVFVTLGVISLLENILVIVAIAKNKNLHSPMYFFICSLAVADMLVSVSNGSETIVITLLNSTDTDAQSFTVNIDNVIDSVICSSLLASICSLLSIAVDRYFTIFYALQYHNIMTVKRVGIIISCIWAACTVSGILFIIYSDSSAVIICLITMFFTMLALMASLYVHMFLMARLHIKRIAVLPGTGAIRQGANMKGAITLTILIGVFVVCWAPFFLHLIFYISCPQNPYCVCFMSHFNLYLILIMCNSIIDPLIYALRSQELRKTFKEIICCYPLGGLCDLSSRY

[2] = target: Aldo-keto reductase family 1 member B1 (Rattus norvegicus, UniProt P07943); assay: biochemical; assay type: tissue-based, Lens of camera-type eye;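 further: inhibition of aldose reductase enzyme activity, measured with DL-glyceraldehyde as the substrate; in other assays of this panel Not Active means under 50% inhibition at 10 µM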
[3] = target: T3, Alpha-2C adrenergic receptor (Homo sapiens, UniProt P18825); assay: DRUGMATRIX: Adrenergic Alpha-2C radioligand binding (ligand: [3H] MK-912); assay type: cell membranes, Sf9, Membrane; settings: sf9
T3 sequence (P18825 whole entry): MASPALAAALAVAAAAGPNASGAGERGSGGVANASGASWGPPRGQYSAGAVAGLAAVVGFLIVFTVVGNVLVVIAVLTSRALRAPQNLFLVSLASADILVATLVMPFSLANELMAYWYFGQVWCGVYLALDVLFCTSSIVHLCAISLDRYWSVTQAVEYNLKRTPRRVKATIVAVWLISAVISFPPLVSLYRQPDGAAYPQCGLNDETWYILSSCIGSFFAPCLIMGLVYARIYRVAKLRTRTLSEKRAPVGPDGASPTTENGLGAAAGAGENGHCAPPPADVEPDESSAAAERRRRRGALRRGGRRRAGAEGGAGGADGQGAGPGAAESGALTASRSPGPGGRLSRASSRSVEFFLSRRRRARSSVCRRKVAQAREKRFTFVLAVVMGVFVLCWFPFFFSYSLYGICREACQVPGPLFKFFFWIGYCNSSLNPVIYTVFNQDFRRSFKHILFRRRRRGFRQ

[4] = target: Beta-1 adrenergic receptor (Homo sapiens, UniProt P08588); assay: DRUGMATRIX: Adrenergic beta1 radioligand binding (ligand: [125I] Cyanopindolol); assay type: cell membranes, CHO-K1, Membrane; settings: cho-k1; Not Active = under 50% inhibition at 10 µM
Beta-1 adrenergic receptor, sequence (P08588 whole entry): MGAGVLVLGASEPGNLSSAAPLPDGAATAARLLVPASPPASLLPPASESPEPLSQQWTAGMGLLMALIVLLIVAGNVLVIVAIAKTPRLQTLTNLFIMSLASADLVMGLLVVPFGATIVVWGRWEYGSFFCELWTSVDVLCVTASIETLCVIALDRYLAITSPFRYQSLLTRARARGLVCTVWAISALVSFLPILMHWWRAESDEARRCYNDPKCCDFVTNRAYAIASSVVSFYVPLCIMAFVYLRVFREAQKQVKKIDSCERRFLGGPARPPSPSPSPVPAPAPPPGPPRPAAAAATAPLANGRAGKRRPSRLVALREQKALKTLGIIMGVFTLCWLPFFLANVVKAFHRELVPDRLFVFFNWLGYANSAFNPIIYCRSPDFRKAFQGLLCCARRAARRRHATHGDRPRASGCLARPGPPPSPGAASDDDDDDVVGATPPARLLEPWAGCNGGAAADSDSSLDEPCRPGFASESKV

Cytochrome P450 2A6 = target: T4, Cytochrome P450 2A6 (Homo sapiens, UniProt P11509); settings: bti-tn-5b1-4; further: in other assays of this panel Not Active means under 50% inhibition at 10 µM
T4 sequence (P11509 whole entry): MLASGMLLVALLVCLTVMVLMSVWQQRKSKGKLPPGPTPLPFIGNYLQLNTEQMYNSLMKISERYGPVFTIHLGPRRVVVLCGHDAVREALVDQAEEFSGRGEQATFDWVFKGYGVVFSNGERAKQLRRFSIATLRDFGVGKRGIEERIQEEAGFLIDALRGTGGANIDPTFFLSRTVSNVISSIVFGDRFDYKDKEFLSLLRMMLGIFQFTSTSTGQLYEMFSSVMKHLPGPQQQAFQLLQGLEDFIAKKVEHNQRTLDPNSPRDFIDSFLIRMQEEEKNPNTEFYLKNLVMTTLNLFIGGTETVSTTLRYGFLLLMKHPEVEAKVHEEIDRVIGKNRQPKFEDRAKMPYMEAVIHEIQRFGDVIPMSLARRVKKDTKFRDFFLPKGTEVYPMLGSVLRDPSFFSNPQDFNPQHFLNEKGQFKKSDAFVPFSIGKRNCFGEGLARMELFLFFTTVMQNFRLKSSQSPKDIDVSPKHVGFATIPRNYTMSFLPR

Endothelin-1 receptor = target: T5, Endothelin-1 receptor (Homo sapiens, UniProt P25101); assay type: cell membranes, Membrane; settings: cho-k1; further: in other assays of this panel Not Active means under 50% inhibition at 10 µM
T5 sequence (P25101 whole entry): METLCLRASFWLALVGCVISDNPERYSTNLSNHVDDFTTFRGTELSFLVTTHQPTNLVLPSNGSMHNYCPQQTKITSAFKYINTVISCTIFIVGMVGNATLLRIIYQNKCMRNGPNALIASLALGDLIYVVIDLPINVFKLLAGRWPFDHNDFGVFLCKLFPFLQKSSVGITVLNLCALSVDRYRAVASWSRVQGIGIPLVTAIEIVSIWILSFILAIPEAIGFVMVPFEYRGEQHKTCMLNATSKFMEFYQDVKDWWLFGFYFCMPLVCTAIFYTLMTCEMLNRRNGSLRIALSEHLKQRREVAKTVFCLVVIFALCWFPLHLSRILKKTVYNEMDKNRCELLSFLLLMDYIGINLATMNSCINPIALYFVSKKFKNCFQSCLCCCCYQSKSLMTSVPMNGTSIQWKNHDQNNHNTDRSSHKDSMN

CC(=O)Nc1c(I)c(NC(C)=O)c(I)c(C(=O)O)c1I [DIATRIZOIC ACID]
Not Active: IC50 (Cytochrome P450 1A2) | Ki (Cytochrome P450 1A2) | IC50 [1] | IC50 (Melanocortin receptor 4) | IC50 [2] | IC50 [3] | IC50 [4] | IC50 (Cytochrome P450 2A6) | Ki (Cytochrome P450 2A6) | IC50 (Endothelin-1 receptor)

COP(=O)(OC)OC=C(Cl)Cl [DICHLORVOS]
Not Active: IC50 (Cytochrome P450 1A2) | Ki (Cytochrome P450 1A2) | IC50 [1] | IC50 (Melanocortin receptor 4) | IC50 [2] | IC50 [3] | IC50 [4] | IC50 (Cytochrome P450 2A6) | Ki (Cytochrome P450 2A6) | IC50 (Endothelin-1 receptor)

O=C(O)Cc1ccccc1Nc1c(Cl)cccc1Cl [DICLOFENAC]
Not Active: IC50 (Cytochrome P450 1A2) | Ki (Cytochrome P450 1A2) | IC50 [1] | IC50 (Melanocortin receptor 4) | IC50 [2] | IC50 [3] | IC50 [4] | IC50 (Cytochrome P450 2A6) | Ki (Cytochrome P450 2A6) | IC50 (Endothelin-1 receptor)

C[C@H]1O[C@@H](O[C@H]2[C@@H](O)C[C@H](O[C@H]3[C@@H](O)C[C@H](O[C@H]4CC[C@@]5(C)[C@H](CC[C@@H]6[C@@H]5CC[C@]5(C)[C@@H](C7=CC(=O)OC7)CC[C@]65O)C4)O[C@@H]3C)O[C@@H]2C)C[C@H](O)[C@@H]1O [DIGITOXIN]
Not Active: IC50 (Cytochrome P450 1A2) | Ki (Cytochrome P450 1A2) | IC50 [1] | IC50 (Melanocortin receptor 4) | IC50 [2] | IC50 [3] | IC50 [4] | IC50 (Cytochrome P450 2A6) | Ki (Cytochrome P450 2A6) | IC50 (Endothelin-1 receptor)

CCN1CC(CCN2CCOCC2)C(c2ccccc2)(c2ccccc2)C1=O (stereo not given) [DOXAPRAM]
Not Active: IC50 (Cytochrome P450 1A2) | Ki (Cytochrome P450 1A2) | IC50 [1] | IC50 (Melanocortin receptor 4) | IC50 [2] | IC50 [3] | IC50 [4] | IC50 (Cytochrome P450 2A6) | Ki (Cytochrome P450 2A6) | IC50 (Endothelin-1 receptor)

Cn1c(=O)c2c(ncn2CC2OCCO2)n(C)c1=O [DOXOFYLLINE]
Not Active: IC50 (Cytochrome P450 1A2) | Ki (Cytochrome P450 1A2) | IC50 [1] | IC50 (Melanocortin receptor 4) | IC50 [2] | IC50 [3] | IC50 [4] | IC50 (Cytochrome P450 2A6) | Ki (Cytochrome P450 2A6) | IC50 (Endothelin-1 receptor)

COc1cccc2c1C(=O)c1c(O)c3c(c(O)c1C2=O)C[C@@](O)(C(=O)CO)C[C@@H]3O[C@H]1C[C@H](N)[C@H](O)[C@H](C)O1 [DOXORUBICIN]
Not Active: IC50 (Cytochrome P450 1A2) | Ki (Cytochrome P450 1A2) | IC50 [1] | IC50 (Melanocortin receptor 4) | IC50 [2] | IC50 [3] | IC50 [4] | IC50 (Cytochrome P450 2A6) | Ki (Cytochrome P450 2A6) | IC50 (Endothelin-1 receptor)

COc1cccc2c1C(=O)c1c(O)c3c(c(O)c1C2=O)C[C@@](O)(C(=O)CO)C[C@@H]3O[C@H]1C[C@H](N)[C@@H](O)[C@H](C)O1 [EPIRUBICIN]
Not Active: IC50 (Cytochrome P450 1A2) | Ki (Cytochrome P450 1A2) | IC50 [1] | IC50 (Melanocortin receptor 4) | IC50 [2] | IC50 [3] | IC50 [4] | IC50 (Cytochrome P450 2A6) | Ki (Cytochrome P450 2A6) | IC50 (Endothelin-1 receptor)
